# Measurements: PMC3711795 (Nature, 2012)
# How the values were obtained:
# [1] = target: T1, HSC / FNT3 (hydrosulfide ion channel) (Clostridioides difficile, UniProt Q186B7); conditions: 450 µM 14C-formate; pH 8.0; competing permeant anion, competitive
# T1 sequence (Q186B7 2-258): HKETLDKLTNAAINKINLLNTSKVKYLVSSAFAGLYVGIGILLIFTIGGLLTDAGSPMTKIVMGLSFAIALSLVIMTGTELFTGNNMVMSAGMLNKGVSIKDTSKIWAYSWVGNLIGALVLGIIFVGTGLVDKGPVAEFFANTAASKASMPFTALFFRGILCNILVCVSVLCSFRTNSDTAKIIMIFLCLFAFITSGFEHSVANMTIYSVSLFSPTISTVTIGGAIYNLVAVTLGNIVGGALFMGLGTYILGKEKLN
# [2] = target: hydrosulfide ion channel (HSC) from Clostridium difficile (Clostridium difficile strain 630); assay: crystal structure
Compound,% inhibition at 15 mM [1],stoichiometry N [2]
S [HS^−],90%,–
O=NO [nitrite],70%,–
hydrosulfide ion channel (HSC) from Clostridium difficile (natural protein),–,5
